“And” between values parts separate entries of the source, which are not always exact repeats. Identical values can stand only once.
How the values were obtained:
[1] = FAERS search for hepatobiliary disorder cases involving meloxicam; parameters: species or system human
[2] = BJC HealthCare electronic health record cohort: DILI hospitalizations; parameters: species or system human; conditions: of 2800 DILI hospitalizations; 4570 hospitalizations prescribed meloxicam
CYP1A2 = target: T1, CYP1A2 (Homo sapiens, UniProt P05177); conditions: pH 7.4
T1 sequence (P05177 1-516): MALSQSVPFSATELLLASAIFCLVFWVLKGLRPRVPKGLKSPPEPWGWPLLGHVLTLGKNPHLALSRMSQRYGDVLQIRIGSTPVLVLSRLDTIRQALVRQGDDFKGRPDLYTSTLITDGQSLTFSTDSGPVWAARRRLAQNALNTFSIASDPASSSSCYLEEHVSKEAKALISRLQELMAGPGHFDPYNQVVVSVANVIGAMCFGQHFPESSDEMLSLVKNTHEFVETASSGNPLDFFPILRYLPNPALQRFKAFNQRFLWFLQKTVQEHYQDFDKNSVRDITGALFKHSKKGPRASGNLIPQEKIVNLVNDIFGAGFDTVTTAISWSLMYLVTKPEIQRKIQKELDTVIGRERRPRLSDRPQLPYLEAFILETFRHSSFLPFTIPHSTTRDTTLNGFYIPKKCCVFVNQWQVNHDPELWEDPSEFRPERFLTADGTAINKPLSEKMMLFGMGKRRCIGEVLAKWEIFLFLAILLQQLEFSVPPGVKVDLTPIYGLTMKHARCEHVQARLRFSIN

[3] = patients; ref Gschwend et al., 2007; cited from earlier work
[4] = test system: P450 activity in human liver microsomes (HLM150); test: Inhibitor phenotyping of bioactivation in human liver microsomes; assay type: in vitro ADME
CYP3A4 = CYP3A4 (Homo sapiens, UniProt P08684); conditions: 400 µM sudoxicam, 100 nM CYP3A4, 30 min
Sequence of CYP3A4 (P08684 whole entry): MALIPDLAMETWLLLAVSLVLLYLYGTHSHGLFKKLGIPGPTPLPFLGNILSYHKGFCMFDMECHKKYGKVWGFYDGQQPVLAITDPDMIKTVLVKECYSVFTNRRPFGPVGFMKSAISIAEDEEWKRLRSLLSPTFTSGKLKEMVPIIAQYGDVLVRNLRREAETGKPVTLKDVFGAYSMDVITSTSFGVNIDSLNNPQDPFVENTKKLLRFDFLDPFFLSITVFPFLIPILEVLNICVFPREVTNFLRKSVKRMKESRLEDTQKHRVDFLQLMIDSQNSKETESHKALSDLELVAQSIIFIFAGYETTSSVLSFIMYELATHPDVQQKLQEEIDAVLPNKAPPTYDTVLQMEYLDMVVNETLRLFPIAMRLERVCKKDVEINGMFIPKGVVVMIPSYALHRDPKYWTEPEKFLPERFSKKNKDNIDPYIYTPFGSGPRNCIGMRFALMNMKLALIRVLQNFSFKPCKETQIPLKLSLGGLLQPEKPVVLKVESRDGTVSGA

CYP2C19 = CYP2C19 (Homo sapiens, UniProt P33261); conditions: 400 µM sudoxicam, 100 nM CYP2C19, 30 min
[5] = substrate: Cc1cnc(NC(=O)C2=C(O)c3ccccc3S(=O)(=O)N2C)s1; test: cells, lysate or membranes named; conditions: other: meloxicam -> methylglyoxal (bioactivation), recombinant CYP 1A2; pH 7.4
[6] = substrate: CN1C(C(=O)Nc2nccs2)=C(O)c2ccccc2S1(=O)=O; test: cells, lysate or membranes named; conditions: other: sudoxicam -> glyoxal (bioactivation), pH 7.4

Molecule: Cc1cnc(NC(=O)C2=C(O)c3ccccc3S(=O)(=O)N2C)s1 [meloxicam]
- hepatobiliary disorder cases resulting in death ([1]; FAERS, 1998 to 2020): 39 cases
- serious cases of hepatobiliary disorders ([1]; human): 308 cases
- total cases of hepatobiliary disorders ([1]; human): 326 cases
- DILI hospitalizations that had been prescribed meloxicam [2]: 8 hospitalizations
- Scaled contribution of CYP1A2 (Vmax/Km) (CYP1A2): 0.457 pmol/min/mg protein/µM substrate
- Vmax (CYP1A2): 1000 ± 53 pmol/min/nmol protein
- methylglyoxal formation in recombinant P450 screen (CYP1A2; recombinant enzyme, 30 min, 400 µM): only recombinant P450 to form detectable levels of methylglyoxal
- Percent contribution of CYP1A2 (CYP1A2; recombinant enzyme): 100%
- maximum plasma levels [3]: 3.2 µM

Molecule: Cc1c(OCC(F)(F)F)ccnc1C[S+]([O-])c1nc2ccccc2[nH]1 (stereo not drawn) [lansoprazole]
- share of total applicable hepatobiliary cases with concomitant drug ([1]; human): 6%

Molecule: COc1ccc2[nH]c([S+]([O-])Cc3ncc(C)c(OC)c3C)nc2c1 (stereo not drawn) [omeprazole]
- share of total applicable hepatobiliary cases with concomitant drug ([1]; human): 6%

Molecule: Nn1nnc2ccccc21 [ABT, 1-aminobenzotriazole]
- blocked methylglyoxal formation (meloxicam bioactivation) ([4]; 1 mM ABT, 10 µM meloxicam, HLM150 0.5 mg/mL, 40 min): 85%

Molecule: CN1C(C(=O)Nc2nccs2)=C(O)c2ccccc2S1(=O)=O [sudoxicam, N-(2-thiazolyl)-4-hydroxy-2-methyl-2H-1,2-benzothiazine-3-carboxamide 1,1-dioxide]
- glyoxal formation in recombinant P450 screen (CYP3A4): capable of catalyzing the reaction
- glyoxal formation in recombinant P450 screen (CYP2C19): capable of catalyzing the reaction

Molecule: O=c1cc(-c2ccccc2)oc2c1ccc1ccccc12 [ANF, α-naphthoflavone]
- effect on glyoxal formation (sudoxicam bioactivation) ([4]; 16 µM ANF (CYP1A2 inhibitor), 10 µM sudoxicam, HLM150): increased significantly the extent of the reaction

B1: CYP1A2 (Homo sapiens) (protein)
chain: T1 sequence (P05177 1-516)
- Km [5]: 40 ± 7.5 µM

B2: CYP2C19 (Homo sapiens) (protein)
chain: MDPFVVLVLCLSCLLLLSIWRQSSGRGKLPPGPTPLPVIGNILQIDIKDVSKSLTNLSKIYGPVFTLYFGLERMVVLHGYEVVKEALIDLGEEFSGRGHFPLAERANRGFGIVFSNGKRWKEIRRFSLMTLRNFGMGKRSIEDRVQEEARCLVEELRKTKASPCDPTFILGCAPCNVICSIIFQKRFDYKDQQFLNLMEKLNENIRIVSTPWIQICNNFPTIIDYFPGTHNKLLKNLAFMESDILEKVKEHQESMDINNPRDFIDCFLIKMEKEKQNQQSEFTIENLVITAADLLGAGTETTSTTLRYALLLLLKHPEVTAKVQEEIERVIGRNRSPCMQDRGHMPYTDAVVHEVQRYIDLIPTSLPHAVTCDVKFRNYLIPKGTTILTSLTSVLHDNKEFPNPEMFDPRHFLDEGGNFKKSNYFMPFSAGKRICVGEGLARMELFLFLTFILQNFNLKSLIDPKDLDTTPVVNGFASVPPFYQLCFIPV
- Km ([6]; recombinant CYP 2C19): 23 ± 5.2 µM

B3: CYP2C8 (Homo sapiens) (protein)
chain: MEPFVVLVLCLSFMLLFSLWRQSCRRRKLPPGPTPLPIIGNMLQIDVKDICKSFTNFSKVYGPVFTVYFGMNPIVVFHGYEAVKEALIDNGEEFSGRGNSPISQRITKGLGIISSNGKRWKEIRRFSLTTLRNFGMGKRSIEDRVQEEAHCLVEELRKTKASPCDPTFILGCAPCNVICSVVFQKRFDYKDQNFLTLMKRFNENFRILNSPWIQVCNNFPLLIDCFPGTHNKVLKNVALTRSYIREKVKEHQASLDVNNPRDFIDCFLIKMEQEKDNQKSEFNIENLVGTVADLFVAGTETTSTTLRYGLLLLLKHPEVTAKVQEEIDHVIGRHRSPCMQDRSHMPYTDAVVHEIQRYSDLVPTGVPHAVTTDTKFRNYLIPKGTTIMALLTSVLHDDKEFPNPNIFDPGHFLDKNGNFKKSDYFMPFSAGKRICAGEGLARMELFLFLTTILQNFNLKSVDDLKNLNTTAVTKGIVSLPPSYQICFIPV
- Km ([6]; recombinant CYP 2C8): 5 µM and 4.6 ± 0.89 µM
